Test results: US9861616B2, “Methods for treating respiratory diseases and formulations therefor” (priority 2013, dated 2018)
≈ marks a conversion by molar mass, not a printed value.

Assays:
[1] = test system: IL-8 (CXCL8) release; experiment: LPS-induced IL-8 (CXCL8) release in PMA-differentiated U937 cells (ELISA); format: cell-based, human
Description: Effects of macrolides on lipopolysaccharide (LPS)-induced CXCL8 release in PMA-differentiated U937 cells. […] LPS-induced CXCL8 release was evaluated by ELISA. Values represent means of three experiments±SEM. ^##p<0.01 (vs. non-treatment control), *p<0.05, **p<0.01 (vs. treatment with LPS only).
The human monocytic cell line U937 was obtained from the American Type Culture Collection (ATCC, Rockville, Md.). PBMCs from COPD patients were obtained from Brompton hospital and separated by AccuSPIN (Sigma-Aldrich). Cells were cultured in complete growth medium (RPMI 1640) (Sigma-Aldrich) supplemented with 10% fetal bovine serum (FBS) and 1% L-glutamine at 37° C. in a humidified atmosphere with 5% CO2. U937 cells were differentiated into adherent macrophage-like morphology by exposure to PMA (50 ng/mL) for 48 hrs in complete growth medium. Cell viability was assessed microscopically by trypan blue staining. Cell toxicity was determined by MTT assay as needed. This study was approved by the ethics committee of the Royal Brompton Hospitals, and all subjects gave written informed consent.
TNFα and IL-8 concentrations in the supernatant of cell cultures were determined by sandwich ELISA according to the manufacturer's instructions (R&D Systems Europe, Abingdon, UK).
The results were expressed as the mean±SEM. Comparisons of data in two groups were performed using the Student's t test or the Wilcoxon signed rank test. Multiple comparisons were made by one-way ANOVA with post hoc test (Dunnett's) as appropriate. The difference was considered significant at p<0.05. IC50 values (50% inhibitory concentration) for macrolides for production of cytokines or MMP9 were calculated using Prism 4.0 (GraphPad Software Inc., San Diego, Calif.).

[2] = test system: P. aeruginosa (PA); experiment: MIC by microdilution, 36 clinical and laboratory strains with known efflux phenotype; format: cell-based
Description: (§1) MICs of 36 clinical and laboratory strains of PA with known efflux phenotype are measured by microdilution in cation-adjusted Muller-Hinton broth (CA-MHB) or in RPMI medium (commonly used in eukaryotic cell culture). Phe-Arg-β-naphthylamide (PaβN, 50 mg/L) and EGTA 5 mM are used to inhibit efflux pumps and alter OM integrity, respectively. P. aeruginosa strain ATCC PAO1 is used as reference. PA12 is a clinical strain overexpressing the 4 main efflux systems (MexAB, MexCD, MexEF, MexXY), PA403 is a laboratory strain deleted in the genes coding for the 4 efflux systems. A series of reference strains or of clinical isolates for which the expression of genes coding for efflux pumps is known is also used for MICs determinations. MICs are measured by microdilution in MH broth or in RPMI medium (used for eukaryotic cells culture) supplemented with 10% of fetal calf serum, or in MH broth supplemented by increasing amounts of serum. EGTA (5 mM) was used as a chelating agent (disrupting outer membrane integrity) and PaβN (50 mg/L) as an unspecific efflux inhibitor.

[3] = test system: P. aeruginosa PA12; experiment: MIC by microdilution with PaβN or EGTA, clinical isolate overexpressing efflux pumps; format: cell-based; settings: Pseudomonas aeruginosa
Description: as §1

Compound: CC[C@H]1OC(=O)[C@H](C)[C@@H](O[C@H]2C[C@@](C)(OC)[C@@H](O)[C@H](C)O2)[C@H](C)[C@@H](O[C@@H]2O[C@H](C)C[C@H](N(C)C)[C@H]2O)[C@](C)(O)C[C@@H](C)C(=O)[C@H](C)[C@@H](O)[C@]1(C)O [ERY, erythromycin]
- effect on IL-8 production ([1]; 33 to 333 μM (FIG. 4)): did not inhibit
- IC50 ([1]; Homo sapiens, U-937, U937 cells, at 333 μM, read-out: IC50, LPS-induced IL-8 release: NE at 333 μM): > 333 µM
- MIC ([2]; strain 1, efflux AB+, MHB): 512 µg/mL (≈ 698 µM)
- MIC ([2]; strain 1, efflux AB+, RPMI): 8 µg/mL (≈ 10.9 µM)
- MIC ([2]; strain 2, efflux CD+, MHB): 512 µg/mL (≈ 698 µM)
- MIC ([2]; strain 3, efflux EF+, RPMI): 8 µg/mL (≈ 10.9 µM)
- MIC ([2]; strain 4, efflux XY+, MHB): 512 µg/mL (≈ 698 µM)
- MIC ([2]; strain 4, efflux XY+, RPMI): 32 µg/mL (≈ 43.6 µM)
- MIC ([2]; strain 11, efflux AB + CD+, RPMI): 16 µg/mL
- MIC ([2]; strain 12, efflux AB + CD + EF + XY+, MHB): 512 µg/mL
- MIC ([2]; strain 12, efflux AB + CD + EF + XY+, RPMI): 32 µg/mL
- MIC ([2]; strain 16, efflux AB + XY+, MHB): 512 µg/mL
- MIC ([2]; strain 16, efflux AB + XY+, RPMI): 32 µg/mL
- MIC ([2]; strain 21, efflux AB+, MHB): 512 µg/mL (≈ 698 µM)
- MIC ([2]; strain 21, efflux AB+, RPMI): 64 µg/mL (≈ 87.2 µM)
- MIC ([2]; strain 22, efflux XY+, MHB): 512 µg/mL (≈ 698 µM)
- MIC ([2]; strain 22, efflux XY+, RPMI): 32 µg/mL (≈ 43.6 µM)
- MIC ([2]; strain 40, efflux EF+, RPMI): 32 µg/mL (≈ 43.6 µM)
- MIC ([2]; strain 41, efflux CD+, MHB): 512 µg/mL (≈ 698 µM)
- MIC ([2]; strain 41, efflux CD+, RPMI): 64 µg/mL (≈ 87.2 µM)
- MIC ([2]; strain 48, efflux CD + EF + XY+, MHB): 512 µg/mL
- MIC ([2]; strain 48, efflux CD + EF + XY+, RPMI): 64 µg/mL
- MIC ([2]; strain 49, efflux CD + EF + XY+, MHB): 512 µg/mL
- MIC ([2]; strain 49, efflux CD + EF + XY+, RPMI): 64 µg/mL
- MIC ([2]; strain 63, efflux AB + EF + XY+, MHB): 512 µg/mL
- MIC ([2]; strain 63, efflux AB + EF + XY+, RPMI): 64 µg/mL
- MIC ([2]; strain 68, efflux AB + XY+, MHB): 512 µg/mL
- MIC ([2]; strain 68, efflux AB + XY+, RPMI): 64 µg/mL
- MIC ([2]; strain 133, efflux EF + XY+, MHB): 512 µg/mL
- MIC ([2]; strain 133, efflux EF + XY+, RPMI): 64 µg/mL
- MIC ([2]; strain 156, efflux EF + XY+, MHB): 512 µg/mL
- MIC ([2]; strain 156, efflux EF + XY+, RPMI): 16 µg/mL
- MIC ([2]; strain 168B, efflux CD + XY+, MHB): 512 µg/mL
- MIC ([2]; strain 207, efflux AB + EF + XY+, MHB): 512 µg/mL
- MIC ([2]; strain 266B, efflux AB + CD+, MHB): 512 µg/mL
- MIC ([2]; strain 266B, efflux AB + CD+, RPMI): 64 µg/mL
- MIC ([2]; strain 333A, efflux AB + EF+, MHB): 512 µg/mL
- MIC ([2]; strain 333A, efflux AB + EF+, RPMI): 64 µg/mL
- MIC ([2]; strain 335, efflux AB + EF+, MHB): 512 µg/mL
- MIC ([2]; strain 335, efflux AB + EF+, RPMI): 64 µg/mL
- MIC ([2]; strain 391, efflux EF−, RPMI): 32 µg/mL (≈ 43.6 µM)
- MIC ([2]; strain 392, efflux CD−, RPMI): 16 µg/mL (≈ 21.8 µM)
- MIC ([2]; strain 394, efflux XY−, MHB): 512 µg/mL (≈ 698 µM)
- MIC ([2]; strain 394, efflux XY−, RPMI): 32 µg/mL (≈ 43.6 µM)
- MIC ([2]; strain 395, efflux HI−, RPMI): 32 µg/mL (≈ 43.6 µM)
- MIC ([2]; strain 396, ompH−, RPMI): 16 µg/mL (≈ 21.8 µM)
- MIC ([2]; strain 397, efflux AB−, MHB): 16 µg/mL (≈ 21.8 µM)
- MIC ([2]; strain 397, efflux AB−, RPMI): 2 µg/mL (≈ 2.73 µM)
- MIC ([2]; strain 398, efflux CD−, MHB): 16 µg/mL (≈ 21.8 µM)
- MIC ([2]; strain 398, efflux CD−, RPMI): 4 µg/mL (≈ 5.45 µM)
- MIC ([2]; strain 399, efflux AB − EF−, MHB): 16 µg/mL (≈ 21.8 µM)
- MIC ([2]; strain 399, efflux AB − EF−, RPMI): 4 µg/mL (≈ 5.45 µM)
- MIC ([2]; strain 400, efflux XY−, MHB): 16 µg/mL (≈ 21.8 µM)
- MIC ([2]; strain 400, efflux XY−, RPMI): 4 µg/mL (≈ 5.45 µM)
- MIC ([2]; strain 401, ompH−, MHB): 8 µg/mL (≈ 10.9 µM)
- MIC ([2]; strain 401, ompH−, RPMI): 4 µg/mL (≈ 5.45 µM)
- MIC ([2]; strain 403, efflux AB − CD − EF − XY−, MHB): 16 µg/mL (≈ 21.8 µM)
- MIC ([2]; strain 403, efflux AB − CD − EF − XY−, RPMI): 4 µg/mL (≈ 5.45 µM)
- MIC ([2]; strain 405, efflux AB − CD − EF − XY−, MHB): 8 µg/mL (≈ 10.9 µM)
- MIC ([2]; strain 405, efflux AB − CD − EF − XY−, RPMI): 4 µg/mL (≈ 5.45 µM)
- MIC ([2]; strain 434, efflux AB + CD + XY+, MHB): 512 µg/mL
- MIC ([2]; strain PAO1, REFERENCE, MHB): 512 µg/mL (≈ 698 µM)
- MIC ([2]; strain PAO1, REFERENCE, RPMI): 32 µg/mL (≈ 43.6 µM)
- MIC ([3]; PA12, PA12, CA-MHB, EGTA 5 mM): 512 µg/mL (≈ 698 µM)
- MIC ([3]; PA12, PA12, CA-MHB, PaβN 50 mg/L): 32 µg/mL (≈ 43.6 µM)
- MIC ([3]; PA12, PA12, CA-MHB, control conditions (CT)): 512 µg/mL (≈ 698 µM)
- MIC ([3]; PA12, PA12, RPMI, EGTA 5 mM): 2 µg/mL (≈ 2.73 µM)
- MIC ([3]; PA12, PA12, RPMI, PaβN 50 mg/L): 32 µg/mL (≈ 43.6 µM)
- MIC ([3]; PA12, PA12, RPMI, control conditions (CT)): 32 µg/mL (≈ 43.6 µM)
